Measurements taken from ChEMBL document CHEMBL1132959, “Design of potent dicyclic (1-5/4-10) gonadotropin releasing hormone (GnRH) antagonists” (J Med Chem, 2000).
Blank lines part the entries; values can stand above or below the molecule they belong to. Square brackets hold non-standard residues; d marks the D form. Peptide text beside a SMILES is read from it. dPhe(4-Cl) = N[C@H](Cc1ccc(Cl)cc1)C(=O)O; NMeL = CN[C@@H](CC(C)C)C(=O)O; ΔPro = O=C(O)[C@@H]1C=CCN1; βAla = NCCC(=O)O

Experiments:
[1] = biological target: T1, Gonadotropin-releasing hormone receptor (Rattus norvegicus, UniProt P30969); assay: Affinity for rat gonadotrophin releasing hormone (GnRH) receptor using HEK293 cells transfected with rat Gonadotropin-releasing hormone receptor; assay type: cell-based; settings: hek293
T1 sequence (P30969 whole entry): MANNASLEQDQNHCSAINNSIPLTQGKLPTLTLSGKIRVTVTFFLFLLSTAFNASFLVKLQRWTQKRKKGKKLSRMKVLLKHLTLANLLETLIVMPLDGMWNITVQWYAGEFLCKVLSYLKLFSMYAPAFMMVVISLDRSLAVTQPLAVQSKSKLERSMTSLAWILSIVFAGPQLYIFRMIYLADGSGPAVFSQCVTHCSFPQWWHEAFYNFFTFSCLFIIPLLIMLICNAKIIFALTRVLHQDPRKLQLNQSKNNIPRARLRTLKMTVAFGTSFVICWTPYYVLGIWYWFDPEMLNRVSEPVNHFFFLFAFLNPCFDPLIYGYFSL

[2] = organism: Rattus norvegicus; assay: Antiovulatory potency at 1 ug/rat expressed as rats ovulating by total no. of rats (4/4); assay type: functional
[3] = organism: Rattus norvegicus; assay: Antiovulatory potency at 2.5 ug/rat expressed as rats ovulating by total no. of rats (3/5); assay type: functional
[4] = organism: Rattus norvegicus; assay: Antiovulatory potency at 5 ug/rat expressed as rats ovulating by total no. of rats (3/5); assay type: functional
[5] = organism: Rattus norvegicus; assay: Antiovulatory potency at 5 ug/rat expressed as rats ovulating by total no. of rats (2/8); assay type: functional
[6] = organism: Rattus norvegicus; assay: Antiovulatory potency at 25 ug/rat expressed as rats ovulating by total no. of rats (0/3); assay type: functional
[7] = organism: Rattus norvegicus; assay: Antiovulatory potency at 10 ug/rat expressed as rats ovulating by total no. of rats (1/6); assay type: functional
[8] = organism: Rattus norvegicus; assay: Antiovulatory potency at 100 ug/rat expressed as rats ovulating by total no. of rats (2/6); assay type: functional
[9] = organism: Rattus norvegicus; assay: Antiovulatory potency at 250 ug/rat expressed as rats ovulating by total no. of rats (3/6); assay type: functional
[10] = biological target: T1, Gonadotropin-releasing hormone receptor; assay: Affinity for rat Gonadotropin-releasing hormone receptor membrane evaluated using HEK293 cells transfected with rat Gonadotropin-releasing hormone receptor; assay type: cell-based
[11] = organism: Rattus norvegicus; assay: Antiovulatory potency at 10 ug/rat expressed as rats ovulating by total no. of rats (4/5); assay type: functional
[12] = organism: Rattus norvegicus; assay: Antiovulatory potency at 25 ug/rat expressed as rats ovulating by total no. of rats (3/8); assay type: functional
[13] = organism: Rattus norvegicus; assay: Antiovulatory potency at 50 ug/rat expressed as rats ovulating by total no. of rats (0/3); assay type: functional
[14] = organism: Rattus norvegicus; assay: Antiovulatory potency at 100 ug/rat expressed as rats ovulating by total no. of rats (0/4); assay type: functional
[15] = organism: Rattus norvegicus; assay: Antiovulatory potency at 250 ug/rat expressed as rats ovulating by total no. of rats (5/5); assay type: functional
[16] = organism: Rattus norvegicus; assay: Antiovulatory potency at 25 ug/rat expressed as rats ovulating by total no. of rats (4/8); assay type: functional
[17] = organism: Rattus norvegicus; assay: Antiovulatory potency at 10 ug/rat expressed as rats ovulating by total no. of rats (4/4); assay type: functional
[18] = organism: Rattus norvegicus; assay: Antiovulatory potency at 5 ug/rat expressed as rats ovulating by total no. of rats (1/8); assay type: functional
[19] = organism: Rattus norvegicus; assay: Antiovulatory potency at 2.5 ug/rat expressed as rats ovulating by total no. of rats (0/5); assay type: functional
[20] = organism: Rattus norvegicus; assay: Antiovulatory potency at 1500 ug/rat expressed as rats ovulating by total no. of rats (9/10); assay type: functional

Ki [1]: 0.12 nM
SMILES: CC(=O)N[C@@H]1CC(=O)NCC(=O)NCC[C@H]2NC(=O)[C@@H](CC(=O)NC[C@H](C(N)=O)NC(=O)[C@H]3CCCN3C(=O)[C@H](CCCN=C(N)N)NC(=O)[C@@H](CC(C)C)NC(=O)[C@@H](Cc3ccc4ccccc4c3)NC2=O)NC(=O)[C@@H](Cc2cccnc2)NC(=O)[C@H](Cc2ccc(Cl)cc2)NC1=O
Ovulating rats [2]: 4
Ovulating rats [3]: 3
Ovulating rats [4]: 3

Ki [10]: 0.26 nM
SMILES: CC(=O)N[C@@H]1CCC(=O)NCCCC[C@H]2NC(=O)[C@@H](CC(=O)NC[C@H](C(N)=O)NC(=O)[C@H]3CCCN3C(=O)[C@H](CCCN=C(N)N)NC(=O)[C@@H](CC(C)C)NC(=O)[C@@H](Cc3ccc4ccccc4c3)NC2=O)NC(=O)[C@@H](Cc2c[nH]c3ccccc23)NC(=O)[C@H](Cc2ccc(Cl)cc2)NC1=O
Ovulating rats [11]: 4
Ovulating rats [12]: 3
Ovulating rats [13]: 0

Further lines, the molecule ahead of its results:

SMILES: CC(=O)N[C@H](Cc1ccc2ccccc2c1)C(=O)N[C@H](Cc1ccc(F)cc1)C(=O)N[C@H](Cc1cccnc1)C(=O)N[C@H]1CC(=O)NC[C@@H](C(N)=O)NC(=O)[C@@H]2CCCN2C(=O)[C@@H]2CCNC(=O)CNC(=O)CC[C@H](NC1=O)C(=O)N[C@H](CCCN=C(N)N)C(=O)N[C@@H](CC(C)C)C(=O)N2
Ovulating rats [5]: 2
Ovulating rats [6]: 0
Ovulating rats [7]: 1

SMILES: CC(=O)N[C@@H]1CCC(=O)NCCCC[C@@H]2NC(=O)[C@H](CC(C)C)NC(=O)[C@@H](Cc3ccc4ccccc4c3)NC(=O)[C@H](CCCN=C(N)N)NC(=O)[C@H](CC(=O)NC[C@H](C(N)=O)NC(=O)[C@@H]3CCCN3C2=O)NC(=O)[C@@H](Cc2cccnc2)NC(=O)[C@H](Cc2ccc(Cl)cc2)NC1=O
Ki [1]: 1.8 nM
Ovulating rats [8]: 2
Ovulating rats [9]: 3

SMILES: CC(=O)N[C@H](Cc1ccc2ccccc2c1)C(=O)N[C@H](Cc1ccc(Cl)cc1)C(=O)N[C@@H]1CC(=O)NCCCC[C@@H]2NC(=O)[C@H](CC(C)C)NC(=O)[C@@H](CCCN=C(N)N)NC(=O)[C@H](Cc3ccc(O)cc3)NC(=O)[C@H](CC(=O)NC[C@@H](C(N)=O)NC(=O)[C@@H]3CCCN3C2=O)NC1=O
Ovulating rats [14]: 0
Ovulating rats [15]: 5

SMILES: CC(=O)N[C@@H]1CCC(=O)NCCC[C@H]2NC(=O)[C@@H](CC(=O)NC[C@H](C(N)=O)NC(=O)[C@H]3CCCN3C(=O)[C@H](CCCN=C(N)N)NC(=O)[C@@H](CC(C)C)NC(=O)[C@@H](Cc3ccc4ccccc4c3)NC2=O)NC(=O)[C@@H](Cc2c[nH]c3ccccc23)NC(=O)[C@H](Cc2ccc(Cl)cc2)NC1=O
Ki [1]: 0.86 nM
Ovulating rats [16]: 4
Ovulating rats [17]: 4

SMILES: CC(=O)N[C@@H]1CC(=O)NCCC(=O)NCC[C@H]2NC(=O)[C@@H](CC(=O)NC[C@H](C(N)=O)NC(=O)[C@H]3CCCN3C(=O)[C@H](CCCN=C(N)N)NC(=O)[C@@H](CC(C)C)NC(=O)[C@@H](Cc3ccc4ccccc4c3)NC2=O)NC(=O)[C@@H](Cc2c[nH]c3ccccc23)NC(=O)[C@H](Cc2ccc(Cl)cc2)NC1=O
Ki [1]: 0.15 nM
Ovulating rats [18]: 1
Ovulating rats [19]: 0

SMILES: CC(C)C[C@H]1C(=O)N[C@@H](CCCN=C(N)N)C(=O)N2CCC[C@H]2C(=O)NCCC(=O)N2CC=C[C@H]2C(=O)N[C@H](Cc2ccc(Cl)cc2)C(=O)N[C@H](Cc2c[nH]c3ccccc23)C(=O)N[C@@H](CO)C(=O)N[C@@H](Cc2ccc(O)cc2)C(=O)N[C@H](Cc2c[nH]c3ccccc23)C(=O)N1C (cyclo([NMeL]RP[βAla][ΔPro][dPhe(4-Cl)][dW]SY[dW]))
Ovulating rats [20]: 9
